PubChem BioAssay (NCI)
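Compound exposure: 48 hours, 5 concentrations, 96-well plates. GI50: concentration for 50% inhibition of growth. TGI denotes the concentration required for complete inhibition of growth.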

What follows are compounds tested on LOX IMVI melanoma (assay: growth of human tumour cells (NCI), 48 h).

Structure (SMILES) | TGI [µM] | GI50 [µM]
Nc1n[nH]c(=O)c2c1c(I)cn2C1OC(CO)C(O)C1O (stereo not drawn) | 10.6 | –
O=C(Nc1ccc([N+](=O)[O-])cc1[N+](=O)[O-])C(=O)C(C(=O)c1ccc2ccccc2c1)C1OC(=O)c2ccccc21 (stereo not drawn) | 37.6 | –
COc1cc(/C=C/C(=O)Oc2ccc(NC(C)=O)cc2)ccc1C(=O)O/C=C/c1ccccc1 | > 100 | –
COc1ccc2c(c1)CCCN2CCCCCCCCCCN(CCC(C)C)CCC(C)C | 29.1 | –
O=P1(c2ccccc2)Nc2ccccc2SSc2ccccc2N1 | 35.1 | –
COc1ccc(-c2nc3ncccn3c2-c2ccc(SC)cc2)cc1 | 80.4 | –
C[C@H]1C(=O)O[C@@H]2CCN3CC=C(COC(=O)[C@](C)(O)[C@@]1(C)O)[C@H]23 | > 100 | –
N=C1C(=N)c2ccccc2-c2ccccc21.N=C1C(=N)c2ccccc2-c2ccccc21.N=C1C(=N)c2ccccc2-c2ccccc21.[Cl-].[Ru+2] | 7.94 | –
CCOC(=O)c1c2c(n(Cc3ccccc3)c1C)C(=O)C(=O)c1ccccc1-2 | 0.482 | –
CN(C)C(=O)/C=C/c1c[nH]c(=O)[nH]c1=O | > 500 | –
CN(C)CCCn1cnc2cc(Cl)c(Cl)cc21 | > 100 | –
NCCCn1c2c(c3ccc([N+](=O)[O-])cc3c1=O)C(=O)c1ccccc1-2 | 0.225 | 0.0173
O=C1NI(C#Cc2ccccc2)c2ccccc21 | > 100 | –
CCc1nc(N)nc(N)c1-c1ccc([N+](C)(C)C)cc1 | > 100 | –
NCCc1cc(O)c(O)cc1O | 40 | 19.1
COc1ccc(C2=C3SC=c4ccccc4=C3ON=C2c2ccccc2)cc1 | > 100 | –
CC(=O)NNc1nc(-c2ccc([N+](=O)[O-])cc2)c(C#N)c(=O)n1C | 41.3 | –
CCCOC(=O)CNC(=O)OC(C)(C)C | > 100 | –
CN(C)CCNC(=O)c1cccc2ccc(-c3ccc(F)cc3)nc12 | 9.88 | –

Each compound was assayed on SK-OV-3 ovarian (assay: growth of human tumour cells (NCI), 48 h).

Structure (SMILES) | TGI [µM] | GI50 [µM]
Nc1n[nH]c(=O)c2c1c(I)cn2C1OC(CO)C(O)C1O (stereo not drawn) | > 100 | –
O=C(Nc1ccc([N+](=O)[O-])cc1[N+](=O)[O-])C(=O)C(C(=O)c1ccc2ccccc2c1)C1OC(=O)c2ccccc21 (stereo not drawn) | 42.1 | –
COc1cc(/C=C/C(=O)Oc2ccc(NC(C)=O)cc2)ccc1C(=O)O/C=C/c1ccccc1 | > 100 | –
COc1ccc2c(c1)CCCN2CCCCCCCCCCN(CCC(C)C)CCC(C)C | 40.9 | –
O=P1(c2ccccc2)Nc2ccccc2SSc2ccccc2N1 | 44.4 | –
COc1ccc(-c2nc3ncccn3c2-c2ccc(SC)cc2)cc1 | 2.85 | –
C[C@H]1C(=O)O[C@@H]2CCN3CC=C(COC(=O)[C@](C)(O)[C@@]1(C)O)[C@H]23 | > 100 | –
N=C1C(=N)c2ccccc2-c2ccccc21.N=C1C(=N)c2ccccc2-c2ccccc21.N=C1C(=N)c2ccccc2-c2ccccc21.[Cl-].[Ru+2] | 6.91 | –
CCOC(=O)c1c2c(n(Cc3ccccc3)c1C)C(=O)C(=O)c1ccccc1-2 | 5.76 | –
CN(C)C(=O)/C=C/c1c[nH]c(=O)[nH]c1=O | > 280 | –
CN(C)CCCn1cnc2cc(Cl)c(Cl)cc21 | > 100 | –
NCCCn1c2c(c3ccc([N+](=O)[O-])cc3c1=O)C(=O)c1ccccc1-2 | 2.28 | 0.631
O=C1NI(C#Cc2ccccc2)c2ccccc21 | 95.1 | –
CCc1nc(N)nc(N)c1-c1ccc([N+](C)(C)C)cc1 | > 100 | –
Cc1cc2c(cc1C(=O)c1ccc(N)cc1)OCO2 | 85.6 | –
NCCc1cc(O)c(O)cc1O | > 84.1 | –
CC(=O)NNc1nc(-c2ccc([N+](=O)[O-])cc2)c(C#N)c(=O)n1C | > 100 | –
COc1cc(C2CC(c3cccc(Nc4ccncc4)c3)=NN2c2ccc(Cl)cc2)cc(OC)c1OC (stereo not drawn) | 3.43 | 1.77
CCCOC(=O)CNC(=O)OC(C)(C)C | > 100 | –
CN(C)CCNC(=O)c1cccc2ccc(-c3ccc(F)cc3)nc12 | 24.8 | –

These compounds were tested on NCI-H226 lung (assay: growth of human tumour cells (NCI), 48 h).

Structure (SMILES) | TGI [µM] | GI50 [µM]
Nc1n[nH]c(=O)c2c1c(I)cn2C1OC(CO)C(O)C1O (stereo not drawn) | 7.6 | –
O=C(Nc1ccc([N+](=O)[O-])cc1[N+](=O)[O-])C(=O)C(C(=O)c1ccc2ccccc2c1)C1OC(=O)c2ccccc21 (stereo not drawn) | 9.48 | –
COc1cc(/C=C/C(=O)Oc2ccc(NC(C)=O)cc2)ccc1C(=O)O/C=C/c1ccccc1 | > 100 | –
COc1ccc2c(c1)CCCN2CCCCCCCCCCN(CCC(C)C)CCC(C)C | 31.3 | –
O=P1(c2ccccc2)Nc2ccccc2SSc2ccccc2N1 | 33.4 | –
C[C@H]1C(=O)O[C@@H]2CCN3CC=C(COC(=O)[C@](C)(O)[C@@]1(C)O)[C@H]23 | > 100 | –
CCOC(=O)c1c2c(n(Cc3ccccc3)c1C)C(=O)C(=O)c1ccccc1-2 | 1.22 | –
CN(C)C(=O)/C=C/c1c[nH]c(=O)[nH]c1=O | > 500 | –
CN(C)CCCn1cnc2cc(Cl)c(Cl)cc21 | > 100 | –
NCCCn1c2c(c3ccc([N+](=O)[O-])cc3c1=O)C(=O)c1ccccc1-2 | 0.118 | 0.0151
O=C1NI(C#Cc2ccccc2)c2ccccc21 | > 100 | –
CCc1nc(N)nc(N)c1-c1ccc([N+](C)(C)C)cc1 | > 100 | –
NCCc1cc(O)c(O)cc1O | > 100 | 29.6
COc1ccc(C2=C3SC=c4ccccc4=C3ON=C2c2ccccc2)cc1 | > 100 | –
COc1cc(C2CC(c3cccc(Nc4ccncc4)c3)=NN2c2ccc(Cl)cc2)cc(OC)c1OC (stereo not drawn) | 3.59 | 1.66
CCCOC(=O)CNC(=O)OC(C)(C)C | > 100 | –
CN(C)CCNC(=O)c1cccc2ccc(-c3ccc(F)cc3)nc12 | 11.6 | –

These compounds were tested on MDA-MB-435 (assay: growth of human tumour cells (NCI), 48 h).

Structure (SMILES) | TGI [µM] | GI50 [µM]
COc1ccc(-c2nc3ncccn3c2-c2ccc(SC)cc2)cc1 | 0.499 | –
C[C@H]1C(=O)O[C@@H]2CCN3CC=C(COC(=O)[C@](C)(O)[C@@]1(C)O)[C@H]23 | > 100 | –
CCOC(=O)c1c2c(n(Cc3ccccc3)c1C)C(=O)C(=O)c1ccccc1-2 | 0.112 | –
CN(C)CCCn1cnc2cc(Cl)c(Cl)cc21 | > 100 | –
NCCCn1c2c(c3ccc([N+](=O)[O-])cc3c1=O)C(=O)c1ccccc1-2 | 2.08 | 0.322
O=C1NI(C#Cc2ccccc2)c2ccccc21 | > 100 | –
CCc1nc(N)nc(N)c1-c1ccc([N+](C)(C)C)cc1 | > 100 | –
Cc1cc2c(cc1C(=O)c1ccc(N)cc1)OCO2 | 23.4 | –
NCCc1cc(O)c(O)cc1O | 32.7 | –
COc1ccc(C2=C3SC=c4ccccc4=C3ON=C2c2ccccc2)cc1 | > 100 | –
CC(=O)NNc1nc(-c2ccc([N+](=O)[O-])cc2)c(C#N)c(=O)n1C | > 100 | –
COc1cc(C2CC(c3cccc(Nc4ccncc4)c3)=NN2c2ccc(Cl)cc2)cc(OC)c1OC (stereo not drawn) | 3.08 | 1.62

The compounds below were run on KM12 colon (assay: growth of human tumour cells (NCI), 48 h).

Structure (SMILES) | TGI [µM] | GI50 [µM]
Nc1n[nH]c(=O)c2c1c(I)cn2C1OC(CO)C(O)C1O (stereo not drawn) | > 100 | –
O=C(Nc1ccc([N+](=O)[O-])cc1[N+](=O)[O-])C(=O)C(C(=O)c1ccc2ccccc2c1)C1OC(=O)c2ccccc21 (stereo not drawn) | 40.3 | –
COc1cc(/C=C/C(=O)Oc2ccc(NC(C)=O)cc2)ccc1C(=O)O/C=C/c1ccccc1 | > 100 | –
COc1ccc2c(c1)CCCN2CCCCCCCCCCN(CCC(C)C)CCC(C)C | 17.4 | –
O=P1(c2ccccc2)Nc2ccccc2SSc2ccccc2N1 | 30.4 | –
COc1ccc(-c2nc3ncccn3c2-c2ccc(SC)cc2)cc1 | 13.3 | –
C[C@H]1C(=O)O[C@@H]2CCN3CC=C(COC(=O)[C@](C)(O)[C@@]1(C)O)[C@H]23 | > 100 | –
N=C1C(=N)c2ccccc2-c2ccccc21.N=C1C(=N)c2ccccc2-c2ccccc21.N=C1C(=N)c2ccccc2-c2ccccc21.[Cl-].[Ru+2] | > 68 | –
CCOC(=O)c1c2c(n(Cc3ccccc3)c1C)C(=O)C(=O)c1ccccc1-2 | 3.02 | –
CN(C)C(=O)/C=C/c1c[nH]c(=O)[nH]c1=O | > 500 | –
CN(C)CCCn1cnc2cc(Cl)c(Cl)cc21 | > 100 | –
NCCCn1c2c(c3ccc([N+](=O)[O-])cc3c1=O)C(=O)c1ccccc1-2 | 1.23 | 0.0892
O=C1NI(C#Cc2ccccc2)c2ccccc21 | > 100 | –
CCc1nc(N)nc(N)c1-c1ccc([N+](C)(C)C)cc1 | > 100 | –
Cc1cc2c(cc1C(=O)c1ccc(N)cc1)OCO2 | > 100 | –
NCCc1cc(O)c(O)cc1O | 58.5 | –
COc1ccc(C2=C3SC=c4ccccc4=C3ON=C2c2ccccc2)cc1 | > 100 | –
CC(=O)NNc1nc(-c2ccc([N+](=O)[O-])cc2)c(C#N)c(=O)n1C | > 100 | –
COc1cc(C2CC(c3cccc(Nc4ccncc4)c3)=NN2c2ccc(Cl)cc2)cc(OC)c1OC (stereo not drawn) | 3.31 | 1.67
CCCOC(=O)CNC(=O)OC(C)(C)C | > 100 | –
CN(C)CCNC(=O)c1cccc2ccc(-c3ccc(F)cc3)nc12 | 33.4 | –

These compounds were tested on A549 NSCLC (assay: growth of human tumour cells (NCI), 48 h).

Structure (SMILES) | TGI [µM]
Nc1n[nH]c(=O)c2c1c(I)cn2C1OC(CO)C(O)C1O (stereo not drawn) | > 100
O=C(Nc1ccc([N+](=O)[O-])cc1[N+](=O)[O-])C(=O)C(C(=O)c1ccc2ccccc2c1)C1OC(=O)c2ccccc21 (stereo not drawn) | 61.7
COc1cc(/C=C/C(=O)Oc2ccc(NC(C)=O)cc2)ccc1C(=O)O/C=C/c1ccccc1 | > 100
